Source: US20250332139A1, “PS[…] AND THEIR USE FOR TREATING […] AND NE[…] DISORDERS” (Transcend Therapeutics, Inc., priority 2021, published 2025)

What was measured:
Sprague Dawley rats = experiment: Forced Swim Test (FST); assay type: in vivo, rat
From the text: The Forced Swim Test (FST) is a classic, and the most used preclinical behavioral assay to screen compounds with antidepressant-like activity and has high predictive and face validity (Porsolt et al. (1977) Nature 266:730; Borsini and Meli (1988) Psychopharmacology 94:147). The premise of the FST is that when rats are placed into a cylinder filled with water, they will initially try to escape, but over time will become immobile. This increased immobility reflects behavioral despair, modeling a depressive-like state.
Forced Swim Test (FST): In the FST trial, rats were placed in a circular plexiglass container filled with water, with no means of escape. Water temperature was maintained at 22-25° C. and changed for every animal. After an acclimation period, rats were timed for inactivity (failure to struggle), activity, swim time and climbing time. Day 1 consisted of a 15 min acclimation trial, and Day 2 (24 h later) consisted of the 5 min test. A time sampling procedure was employed where animals were observed every 5 sec and scored for immobility, swimming, or climbing. Fluoxetine (10 mg/kg, IP, Sigma Aldrich) or 0.9% sterile saline vehicle (vehicle 3X group) were administered 23.5, 5, and 1 h before testing in the FST. […] The experimenter was blinded to treatment.
Forced Swim Test: In the FST trial, rats were placed in a circular plexiglass container filled with water, with no means of escape. Water temperature was maintained at 22-25° C. and changed for every animal. After an acclimation period, rats were timed for inactivity (failure to struggle), activity, swim time and climbing time. Day 1 consisted of a 15 min acclimation trial, and Day 2 (24 h later) consisted of the 5 min test. A time sampling procedure was employed where animals were observed every 5 sec and scored for immobility, swimming, or climbing. Fluoxetine (10 mg/kg, IP, Sigma Aldrich) or 0.9% sterile saline vehicle (vehicle 3X group) were administered 23.5, 5, and 1 h before testing in the FST. 2C-B (2.5, 10, or 20 mg/kg, IP, Cayman Chemical) or 0.9% saline vehicle (vehicle 1X group) were administered 30 min prior to FST testing. The experimenter was blinded to treatment.
Drug Treatment: Fluoxetine (10 mg/kg, IP, Sigma Aldrich) or 0.9% sterile saline vehicle were administered 23.5, 5, and 1 h before testing in the FST. […] Control animals received fluoxetine alone, methylone alone, or saline vehicle.
Forced Swim Test: In the FST trial, rats were placed in a circular plexiglass container filled with water, with no means of escape. Water temperature was maintained at 22-25° C. and changed for every animal. After an acclimation period, rats were timed for inactivity (failure to struggle), activity, swim time and climbing time. The experimenter and scorer were blind to treatment group. Day 1 consisted of a 15 min acclimation trial, and Day 2 (24 h later) consisted of the 5 min test. A time sampling procedure was employed where animals were observed every 5 sec and scored for immobility, swimming, or climbing.
The FST was performed and scored by an experimenter blind to treatment group according to standard protocols and based on a “modified FST” procedure (Slattery and Cryan (2012) Nat Protoc, 7:1009). Briefly, rats were placed in a circular plexiglass container (29.2 cm diameter, 49.5 cm height) filled with water to a depth of 30 cm so rats could not support themselves by touching the bottom of the tank. Water was maintained at 22-25° C. and was changed for every animal. Day 1 (Training) consisted of a 15 min acclimation trial, and Day 2 (Testing, 24 h later) consisted of the 5 min test. A time sampling procedure was employed where animals were observed every 5 seconds for the duration of the test session (60 counts or 5 minutes) and scored for immobility (defined as the failure to struggle), swimming (defined as a circular movement around the tank), or climbing (defined as an upwards escape behavior). […]

rats = experiment: Open field test (OFT); assay type: in vivo, rat; details: for time spent in the center of the open field: methylone single dose IP 30 min before test (5 or 15 mg/kg in b361; 5-30 mg/kg in b50)
Experimental: This behavioral assay, also widely used as an anxiety paradigm, capitalizes on a rodent's innate fear of brightly lit open spaces, which are assumed to induce fear or anxiety. Rodents spend more time hugging the walls of the open field during the test, and these effects correlate to underlying brain regions and mechanisms.
Method: Consecutive beam breaks and/or video-tracking of time spent in the center versus periphery of the open field are measured. Also measured are parameters such as distance traveled and ambulatory activity (horizontal and vertical) for the duration of the test session.
The open field test (OFT) capitalizes on a rodent's innate fear of open spaces to assess anxiety-like behavior. More time spent in the center of an open field reflects an anxiolytic (anti-anxiety) effect.
To investigate whether MBDB has an anti-anxiety (anxiolytic) effect, rats were dosed with MBDB (0.5-30 mg/kg, IP) or vehicle (saline) and 30-minutes later were tested in the open field for 30 minutes. This anxiety test capitalizes on a rodents' innate fear of wide-open spaces and propensity to hug the walls when placed into the open field. Therefore, a drug that increases the time spent in the center of the open field has anxiolytic activity and predicts utility for treating anxiety in humans.

SMILES: CNC(C)C(=O)c1ccc2c(c1)OCO2 (stereo not drawn) [methylone, 3,4-methylenedioxy-N-methylcathinone]
- antidepressant-like effect in FST (Sprague Dawley rats; 15 mg/kg PO, single dose 2 hours before test, vs vehicle): significant antidepressant-like effect
- climbing behavior (Sprague Dawley rats; Example 8, Methylone 5 or 15 mg/kg IP): significantly increased climbing behavior
- climbing (Sprague Dawley rats; methylone 5-30 mg/kg IP, 30 min before test): only increased at the lowest dose
- effectiveness in FST (Sprague Dawley rats; methylone doses of 10 mg/kg or more): maximally effective
- swimming (Sprague Dawley rats; mid and high doses of methylone IP, 30 min before test): significantly increased swimming
- immobility (Sprague Dawley rats; single dose 5, 10, 15, 20, 30 mg/kg IP 30 min before test, vs saline vehicle): significantly reduced immobility
- locomotor activity in OFT (rats; methylone 15 or 30 mg/kg IP): significant increase in locomotor activity
- time spent in the center of the open field (rats): significantly increases the time spent in the center
- time spent in the center of the open field (rats; listed as Methylone): significantly increased center time
